Where a SMILES comes first, the peptide text is derived from it. [ ]: non-standard residue; d: D form. Aad = N[C@@H](CCCC(=O)O)C(=O)O; Aic = NC1(C(=O)O)Cc2ccccc2C1; Phg = N[C@H](C(=O)O)c1ccccc1; Ac8c = NC1(C(=O)O)CCCCCCC1; Ac7c = NC1(C(=O)O)CCCCCC1; Ac6c = NC1(C(=O)O)CCCCC1; Ac5c = NC1(C(=O)O)CCCC1; Deg = CCC(N)(CC)C(=O)O; Aib = CC(C)(N)C(=O)O
The compounds below were run against T1, human glucagon-like peptide-1 receptor (GLP-1R) (Homo sapiens, UniProt P43220) (assay: Human GLP-1 receptor cell-based assay (flash luminescence, Target Activation phase)). Settings: CHO chAMPion cells stably co-expressing human GLP-1R, Photina and cAMP-activated calcium channel; agonist activity; normalization by forskolin at 10 μM; ^a) values from single experiment; read-out: EC50 (μM) Target Activation (TA).
T1 construct: host or cells: CHO chAMPion cells
T1 sequence (P43220 24-463): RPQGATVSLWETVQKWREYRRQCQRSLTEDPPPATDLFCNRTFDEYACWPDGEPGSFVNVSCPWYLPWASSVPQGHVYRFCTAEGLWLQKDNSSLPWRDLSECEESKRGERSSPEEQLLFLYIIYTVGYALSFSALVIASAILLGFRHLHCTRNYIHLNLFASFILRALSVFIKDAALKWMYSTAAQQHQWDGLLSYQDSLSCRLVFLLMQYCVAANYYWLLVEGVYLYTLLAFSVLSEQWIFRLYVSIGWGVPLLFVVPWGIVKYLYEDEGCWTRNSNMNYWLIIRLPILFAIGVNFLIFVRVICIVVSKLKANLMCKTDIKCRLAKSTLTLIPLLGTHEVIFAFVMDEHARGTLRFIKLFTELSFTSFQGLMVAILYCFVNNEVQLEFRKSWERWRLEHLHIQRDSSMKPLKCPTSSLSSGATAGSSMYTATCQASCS
Method in brief: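 CHO cells co-expressing human GLP-1R, photoprotein and a cAMP-gated Ca2+ channel, preloaded 4 h with coelenterazine and 500 μM IBMX. Compounds at 8 concentrations from 50 μM, quadruplicate; 30 min later 10 mM CaCl2 added and flash luminescence read. EC50 normalized to 10 μM forskolin or 3.16 nM GLP-1.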

EC50 | SMILES
5.1 ± 1.4 µM | CC(C)C[C@@H]1NC(=O)[C@H](CCC(N)=O)NC(=O)[C@H](Cc2c[nH]c3ccccc23)NC(=O)[C@H](Cc2ccccc2)NC(=O)C2(CCCC2)NC(=O)[C@H]2CCCN2C(=O)[C@H](Cc2ccccc2)NC(=O)[C@H](CCC(=O)O)NC(=O)[C@H](Cc2c[nH]c3ccccc23)NC(=O)[C@H](C)NC1=O [compound 46, cyclo(-Phe-Trp-Gln-Leu-Ala-Trp-Glu-Phe-^DPro-Cyp-)] (cyclo(FWQLAWEF[dP][Ac5c]))
2 µM | CCC1(CC)NC(=O)[C@H]2CCCN2C(=O)[C@H](Cc2ccccc2)NC(=O)[C@H](CCC(=O)O)NC(=O)[C@H](Cc2c[nH]c3ccccc23)NC(=O)[C@H](C)NC(=O)[C@H](CC(C)C)NC(=O)[C@H](CC(C)C)NC(=O)[C@H](CCC(=O)O)NC(=O)[C@H](Cc2ccccc2)NC1=O [compound 47, cyclo(-Phe-Glu-Leu-Leu-Ala-Trp-Glu-Phe-^DPro-Deg-)] (cyclo(FELLAWEF[dP][Deg]))
0.9 ± 0.18 µM | CC(C)C[C@@H]1NC(=O)[C@H](CCC(=O)O)NC(=O)[C@H](Cc2ccccc2)NC(=O)C2(CCCC2)NC(=O)[C@H]2CCCN2C(=O)[C@H](Cc2ccccc2)NC(=O)[C@H](CCC(=O)O)NC(=O)[C@H](Cc2c[nH]c3ccccc23)NC(=O)[C@H](C)NC(=O)[C@H](Cc2ccc(O)cc2)NC1=O [compound 48, cyclo(-Phe-Glu-Leu-Tyr-Ala-Trp-Glu-Phe-^DPro-Cyp-)] (cyclo(FELYAWEF[dP][Ac5c]))
3.1 µM | CC(C)C[C@@H]1NC(=O)[C@H](CCC(N)=O)NC(=O)[C@H](Cc2ccccc2)NC(=O)C2(CCCCC2)NC(=O)[C@H]2CCCN2C(=O)[C@H](Cc2ccc(O)cc2)NC(=O)[C@H](CCCC(=O)O)NC(=O)[C@H](Cc2c[nH]c3ccccc23)NC(=O)[C@H](C)NC(=O)[C@H](Cc2ccc(O)cc2)NC1=O [compound 49, cyclo(-Phe-Gln-Leu-Tyr-Ala-Trp-Hgl-Tyr-^DPro-Chx-)] (cyclo(FQLYAW[Aad]Y[dP][Ac6c]))
2.4 µM | CC(C)C[C@@H]1NC(=O)[C@H](CCC(=O)O)NC(=O)[C@H](Cc2ccccc2)NC(=O)C2(CCCCC2)NC(=O)[C@H]2CCCN2C(=O)[C@H](c2ccccc2)NC(=O)[C@H](CCC(=O)O)NC(=O)[C@H](Cc2c[nH]c3ccccc23)NC(=O)[C@H](C)NC(=O)[C@H](Cc2ccc(O)cc2)NC1=O [compound 50, cyclo(-Phe-Glu-Leu-Tyr-Ala-Trp-Glu-Phg-^DPro-Chx-)] (cyclo(FELYAWE[Phg][dP][Ac6c]))
3.3 µM | CC(C)C[C@@H]1NC(=O)[C@H](Cc2c[nH]cn2)NC(=O)[C@H](Cc2ccccc2)NC(=O)C(C)(C)NC(=O)[C@H]2CCCN2C(=O)[C@H](Cc2ccc(O)cc2)NC(=O)[C@H](CCC(N)=O)NC(=O)[C@H](Cc2c[nH]c3ccccc23)NC(=O)[C@H](C)NC(=O)[C@H](Cc2ccc(O)cc2)NC1=O [compound 51, cyclo(-Phe-His-Leu-Tyr-Ala-Trp-Gln-Tyr-^DPro-Aib-)] (cyclo(FHLYAWQY[dP][Aib]))
0.82 ± 0.25 µM | CC(C)C[C@@H]1NC(=O)[C@H](CC(C)C)NC(=O)[C@H](CCC(=O)O)NC(=O)[C@H](Cc2ccccc2)NC(=O)C2(Cc3ccccc3C2)NC(=O)[C@H]2CCCN2C(=O)[C@H](Cc2ccccc2)NC(=O)[C@H](CCC(=O)O)NC(=O)[C@H](Cc2c[nH]c3ccccc23)NC(=O)[C@H](C)NC1=O [compound 52, cyclo(-Phe-Glu-Leu-Leu-Ala-Trp-Glu-Phe-^DPro-Ind-)] (cyclo(FELLAWEF[dP][Aic]))
2.1 µM | CC(C)C[C@@H]1NC(=O)[C@H](CC(C)C)NC(=O)[C@H](CCC(=O)O)NC(=O)[C@H](Cc2ccccc2)NC(=O)C2(CCCCCC2)NC(=O)[C@H]2CCCN2C(=O)[C@H](Cc2ccccc2)NC(=O)[C@H](CCC(=O)O)NC(=O)[C@H](Cc2c[nH]c3ccccc23)NC(=O)[C@H](C)NC1=O [compound 53, cyclo(-Phe-Glu-Leu-Leu-Ala-Trp-Glu-Phe-^DPro-Ac7c-)] (cyclo(FELLAWEF[dP][Ac7c]))
1.1 µM | CC(C)C[C@@H]1NC(=O)[C@H](CC(C)C)NC(=O)[C@H](CCC(=O)O)NC(=O)[C@H](Cc2ccccc2)NC(=O)C2(CCCCCCC2)NC(=O)[C@H]2CCCN2C(=O)[C@H](Cc2ccccc2)NC(=O)[C@H](CCC(=O)O)NC(=O)[C@H](Cc2c[nH]c3ccccc23)NC(=O)[C@H](C)NC1=O [compound 54, cyclo(-Phe-Glu-Leu-Leu-Ala-Trp-Glu-Phe-^DPro-Ac8c-)] (cyclo(FELLAWEF[dP][Ac8c]))

Reference: patent US10730911B2, “Backbone-cyclized peptidomimetics with GLP-1R modulating activity” (POLYPHOR AG, priority 2015, dated 2020)
